Converted amounts (≈) assume the structure as drawn.
Conditions: buffer; pH 7.4; 200.0 µM

Compound | solubility kinetic [µg/mL]
CCOc1ccc(S(=O)(=O)N2CN(c3cccc(C(C)=O)c3)c3nc4ccccc4nc32)cc1 | 3.1 (≈ 6.53 µM)
Cc1c(C(=O)N2CCOCC2)sc(NC(=O)C(C)C)c1C#N | > 48.2
COc1ccc(CC(=O)NCc2ccc3c(c2)cc(C)n3C)cc1OC | 20.8 (≈ 59 µM)
Cc1ccc(S(=O)(=O)CCC(=O)NCCc2ccccc2)cc1 | > 49.7
COc1cc(C(=O)O/N=C(\N)c2ccccn2)cc(OC)c1OC | > 49.7
O=S(=O)(NCCc1ccccc1)c1ccc(Br)s1 | 27.5 (≈ 79.4 µM)
COc1cccc(Nc2c(Nc3cccc(OC)c3)c(=O)c2=O)c1 | < 0.3
Cc1ccc(C(=O)Nc2cccc(C(=O)NC3CCCCC3)c2)cc1 | < 0.4
CCCOc1ccccc1/C=C1/C(=O)ON=C1C | 23.3 (≈ 95 µM)
Cc1ccc2c(c1)oc(=O)n2CC(=O)c1ccccc1 | 6.5 (≈ 24.3 µM)
S=c1[nH]cc(-c2ccc(Cl)cc2)n1Cc1ccccc1 | < 0.3
Cc1onc(-c2c(Cl)cccc2Cl)c1C(=O)Nc1ccc(Cl)cn1 | 3.9 (≈ 10.2 µM)
COc1ccc(NC(=O)c2cccnc2SC)cc1OC | 19.2 (≈ 63.1 µM)
Cc1c(N)cccc1-n1cccc1 | 20 (≈ 116 µM)
O=C1Nc2ccccc2/C1=C/c1ccnc2ccccc12 | 3.5 (≈ 12.9 µM)
O=[N+]([O-])c1ccccc1/C=C/CN1CCC(O)CC1 | 29.2 (≈ 111 µM)
C=CCN1C(=O)NC(=O)/C(=C/c2ccc(OCC(=O)Nc3ccc(C)cc3)cc2)C1=O | > 62.9
CCCC(C)NC(=O)COC(=O)c1cccc(NS(C)(=O)=O)c1 (stereo unspecified) | 50.7 (≈ 148 µM)
COc1cc(/C=N/NC(=O)c2ccccc2)ccc1O | > 40.5
O=C1c2ccccc2C(=O)N1CC(O)COc1ccc(Cl)cc1 (stereo unspecified) | 6.1 (≈ 18.4 µM)
Cc1ccc(C)c(NS(=O)(=O)c2ccccc2C)c1 | 38.8 (≈ 141 µM)
CC(=O)Nc1ccc(NS(=O)(=O)c2ccc(Cl)s2)cc1 | > 49.6
O=C(NC1CCCCC1)C1CCN(c2ncccn2)CC1 | > 43.3

Compound | solubility kinetic [µg/mL]
CN(C(=O)CSc1nnc2n1CCCCC2)C1(C#N)CCCCC1 | > 52.1
CCn1cc(CCCC(=O)NCc2ccccc2OC)c2ccccc21 | 10.2 (≈ 29.1 µM)
Cc1cc(=O)[nH]c(-c2ccc(C(F)(F)F)cc2)n1 | > 38.1
CCCOc1ccc(C2Nc3cccc4cccc(c34)N2)cc1 | 3.8 (≈ 12.5 µM)
CS(=O)(=O)c1ccc([C@@H](O)[C@@H](CO)NC(=O)C(Cl)Cl)cc1 | > 53.4
O=C(NC(=S)Nc1cccnc1)c1cccc(Br)c1 | 8.1 (≈ 24.1 µM)
COc1cccc(CNc2ccc(S(=O)(=O)N3CCCC3)cn2)c1 | 46 (≈ 132 µM)
Br.CCC1CC(CSC(=N)N)OC1=O (stereo unspecified) | > 42.5
O=C(NC1CCC(O)CC1)c1ccccc1OCc1ccc(F)cc1 (stereo unspecified) | 46.4 (≈ 135 µM)
O=c1c2ccccc2nc(-c2ccccc2)n1-c1ccccc1O | 38.3 (≈ 122 µM)
COc1ccc(-c2nc3ccccc3c(=O)n2CCc2ccc(O)cc2)cc1 | 12.4 (≈ 33.3 µM)
CCCc1cc(C(=O)Nc2cccc([N+](=O)[O-])c2)cs1 | 1.7 (≈ 5.86 µM)
Cn1cnc(S(=O)(=O)Nc2cc(-c3ccc(Cl)cc3)nn2C)c1 | > 52.8
Cc1ccc2oc(=O)c(/C=C(\O)C(C)(C)C)nc2c1 | 28.3 (≈ 109 µM)
CN(Cc1ccc(F)cc1)C(=O)CCc1nnc(-c2ccccc2)o1 | > 50.9
Cc1ccc(S(=O)(=O)N(CCO)Cc2ccccc2)cc1 | > 45.8
CC1CC(C)CN(C(=O)C(C)N2CCN(S(=O)(=O)c3ccccc3F)CC2)C1 (stereo unspecified) | 51.7 (≈ 126 µM)
CCCCC(=O)Nc1cnc(NC(=O)c2ccco2)cc1C | > 45.2
c1ccc(Nc2nc(NCCN3CCOCC3)nc(Nc3ccccc3)n2)cc1 | 36 (≈ 92 µM)
Cc1ccc(NC(=O)CN(C)CCOc2ccccc2)c([N+](=O)[O-])c1 | < 0.2
COc1cccc(C(=O)C(C#N)=C(SC)SC)c1 | 33.6 (≈ 120 µM)
CCOc1cc(CNCc2ccccn2)cc(Cl)c1OCC.Cl | 35.5
COc1cc(NC(=O)C[n+]2ccc(C(=O)c3ccccc3)cc2)cc(OC)c1.[Cl-] | > 61.9

Source: PubChem BioAssay AID1996
